# Legend:
# [1] = biological target: human serum albumin (Homo sapiens, UniProt P02768); assay: In vitro protein binding, human serum albumin; assay type: in vitro ADME
# [2] = test system: rats; assay: General toxicology studies in rats; assay type: in vivo, rat
# [3] = biological target: T1, BCRP (Homo sapiens, UniProt Q9UNQ0); assay: In vitro transporter study, BCRP; assay type: in vitro ADME; conditions: at clinically relevant concentrations
# T1 sequence (Q9UNQ0 1-655): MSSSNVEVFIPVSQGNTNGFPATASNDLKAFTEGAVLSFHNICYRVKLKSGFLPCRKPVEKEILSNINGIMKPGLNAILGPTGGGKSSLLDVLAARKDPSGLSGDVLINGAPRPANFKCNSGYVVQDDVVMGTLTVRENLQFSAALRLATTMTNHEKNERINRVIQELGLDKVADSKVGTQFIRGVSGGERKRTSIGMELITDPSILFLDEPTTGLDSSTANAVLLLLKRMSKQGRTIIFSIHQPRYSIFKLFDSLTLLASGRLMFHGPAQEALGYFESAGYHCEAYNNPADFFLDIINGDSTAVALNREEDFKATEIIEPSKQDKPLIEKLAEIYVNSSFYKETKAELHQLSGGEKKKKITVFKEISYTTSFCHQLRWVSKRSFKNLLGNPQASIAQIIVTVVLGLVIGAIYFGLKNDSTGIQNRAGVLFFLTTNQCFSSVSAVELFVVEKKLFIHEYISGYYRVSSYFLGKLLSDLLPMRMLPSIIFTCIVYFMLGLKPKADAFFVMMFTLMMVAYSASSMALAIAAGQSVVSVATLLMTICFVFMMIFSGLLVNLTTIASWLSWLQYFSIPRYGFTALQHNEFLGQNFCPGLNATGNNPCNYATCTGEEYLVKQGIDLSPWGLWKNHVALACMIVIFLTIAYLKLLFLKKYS
# [4] = test system: human peripheral blood lymphocytes (HPBL); assay: in vitro chromosome aberration assay; assay type: cell-based
# [5] = Clinical pharmacokinetics in healthy subjects (bioavailability, food effect, distribution, excretion); assay type: in vivo, human
# [6] = test system: pregnant rats; assay: Embryo-fetal development studies in rats; assay type: in vivo, rat; conditions: oral, organogenesis, pilot study
# Experimental: In the pilot study, maternal toxicity and embryo-fetal developmental effects were observed. Maternal toxicity (reduced body weight gain) occurred at 150 and 300 mg/kg/day doses. Increased post-implantation loss occurred at 50 and 300 mg/kg/day.
# [7] = biological target: T2, CYP1A2 (Homo sapiens, UniProt P05177); assay: In vitro enzyme inhibition, CYP1A2; assay type: in vitro ADME
# T2 sequence (P05177 1-516): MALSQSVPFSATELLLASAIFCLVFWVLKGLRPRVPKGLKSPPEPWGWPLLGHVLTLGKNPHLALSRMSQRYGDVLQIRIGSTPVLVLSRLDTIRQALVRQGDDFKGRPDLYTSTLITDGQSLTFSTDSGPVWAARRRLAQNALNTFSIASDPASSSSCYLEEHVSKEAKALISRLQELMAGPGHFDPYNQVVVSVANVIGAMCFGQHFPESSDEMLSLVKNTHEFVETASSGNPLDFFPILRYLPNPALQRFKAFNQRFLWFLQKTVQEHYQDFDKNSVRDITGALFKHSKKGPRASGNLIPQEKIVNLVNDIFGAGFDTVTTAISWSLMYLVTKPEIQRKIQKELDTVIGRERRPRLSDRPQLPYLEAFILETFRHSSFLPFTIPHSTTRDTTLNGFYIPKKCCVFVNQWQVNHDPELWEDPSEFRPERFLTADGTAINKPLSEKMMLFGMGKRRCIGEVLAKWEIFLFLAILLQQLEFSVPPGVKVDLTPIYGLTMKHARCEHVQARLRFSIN
# [8] = test system: pregnant rabbits; conditions: female, rabbit, in vivo, po
# [9] = test system: patients with chronic GVHD; assay: Pooled adverse reactions and laboratory abnormalities, 83 adult chronic GVHD patients on 200 mg once daily (KD025-213 and KD025-208); assay type: in vivo, human; conditions: for Alanine Aminotransferase Increased / Alkaline Phosphatase Increased / Calcium Decreased / Creatinine Increased / Gamma Glutamyl Transferase Increased / Hemoglobin Decreased / Lymphocytes Decreased / Neutrophil Count Decreased / Phosphate Decreased / Platelets Decreased / Potassium Increased: Grade 0-1 Baseline
# Excerpt: The median duration of treatment was 9.2 months (range 0.5 to 44.7 months).
# [10] = biological target: CYP3A4 (Homo sapiens, UniProt P08684); assay: In vitro metabolism by CYP3A4; assay type: in vitro ADME
# [11] = single oral dose of radiolabeled belumosudil
# CYP3A4, sequence (P08684 whole entry): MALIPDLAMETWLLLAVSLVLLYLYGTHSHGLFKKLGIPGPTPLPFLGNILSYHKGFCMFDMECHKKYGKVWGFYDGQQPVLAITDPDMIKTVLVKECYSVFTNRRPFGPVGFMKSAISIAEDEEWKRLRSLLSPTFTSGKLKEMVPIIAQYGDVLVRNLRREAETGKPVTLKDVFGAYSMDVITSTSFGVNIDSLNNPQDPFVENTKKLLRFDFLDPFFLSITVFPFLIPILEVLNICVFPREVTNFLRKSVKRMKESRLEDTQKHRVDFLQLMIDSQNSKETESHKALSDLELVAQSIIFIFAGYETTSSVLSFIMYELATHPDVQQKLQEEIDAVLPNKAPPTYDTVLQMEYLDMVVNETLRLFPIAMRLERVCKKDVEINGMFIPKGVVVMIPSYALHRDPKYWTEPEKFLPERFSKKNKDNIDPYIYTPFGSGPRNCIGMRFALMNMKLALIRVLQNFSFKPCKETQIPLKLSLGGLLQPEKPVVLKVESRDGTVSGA
# human serum albumin, sequence (P02768 25-609): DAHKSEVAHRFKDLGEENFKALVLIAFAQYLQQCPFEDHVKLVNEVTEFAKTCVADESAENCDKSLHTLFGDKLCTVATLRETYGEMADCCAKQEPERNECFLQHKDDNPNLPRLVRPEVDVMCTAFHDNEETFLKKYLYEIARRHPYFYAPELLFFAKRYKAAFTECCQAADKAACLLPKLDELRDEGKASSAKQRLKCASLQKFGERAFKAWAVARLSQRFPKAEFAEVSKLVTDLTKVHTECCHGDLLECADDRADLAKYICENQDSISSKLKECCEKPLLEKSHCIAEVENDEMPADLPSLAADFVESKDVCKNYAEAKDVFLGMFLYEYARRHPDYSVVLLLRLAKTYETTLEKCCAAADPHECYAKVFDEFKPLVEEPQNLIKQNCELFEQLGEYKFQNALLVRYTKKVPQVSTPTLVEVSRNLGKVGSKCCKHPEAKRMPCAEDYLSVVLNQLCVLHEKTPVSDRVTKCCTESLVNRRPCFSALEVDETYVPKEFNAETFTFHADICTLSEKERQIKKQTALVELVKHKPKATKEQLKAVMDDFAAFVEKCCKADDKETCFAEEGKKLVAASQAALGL
smiles,measurement,setting,value
"CC(C)NC(=O)COc1cccc(-c2nc(Nc3ccc4[nH]ncc4c3)c3ccccc3n2)c1 [belumosudil, 2-{3-[4-(1H-indazol-5-ylamino)-2-quinazolinyl]phenoxy}-N-(propan-2-yl) acetamide]",binding to human serum albumin,[1],99.9%
same,dose with decreased follicular development in ovaries,[2],275 mg/kg/day
same,inhibition of BCRP,[3],inhibits
same,"genotoxicity, chromosome aberration assay",[4],not genotoxic
same,AUC increase with high-fat and high-calorie meal vs fasted,[5]; single dose,2 times
same,Cmax increase with high-fat and high-calorie meal vs fasted,[5]; single dose,2.2 times
same,radioactivity recovered in feces,[5]; [11],85%
same,radioactivity recovered in feces as unchanged,[5]; [11],30%
same,radioactivity recovered in urine,[5]; [11],less than 5%
same,doses at which fetal malformations were observed,[6],≥ 50 mg/kg/day
same,inhibition of CYP1A2,[7],inhibitor
same,doses at which embryo-fetal effects were observed,[8],≥ 50 mg/kg/day
same,doses at which maternal toxicity (body weight loss and mortality) was observed,[8],≥ 125 mg/kg/day
same,Alanine Aminotransferase Increased,[9]; Grade 2-4 Max Post,7%
same,Alkaline Phosphatase Increased,[9]; Grade 2-4 Max Post,9%
same,Calcium Decreased,[9]; Grade 2-4 Max Post,12%
same,Creatinine Increased,[9]; Grade 2-4 Max Post,4%
same,Gamma Glutamyl Transferase Increased,[9]; Grade 2-4 Max Post,21%
same,Hemoglobin Decreased,[9]; Grade 2-4 Max Post,11%
same,Lymphocytes Decreased,[9]; Grade 2-4 Max Post,29%
same,Neutrophil Count Decreased,[9]; Grade 2-4 Max Post,8%
same,Phosphate Decreased,[9]; Grade 2-4 Max Post,28%
same,Platelets Decreased,[9]; Grade 2-4 Max Post,10%
same,Potassium Increased,[9]; Grade 2-4 Max Post,7%
same,Alanine Aminotransferase Increased,[9]; Grade 3-4 Max Post,2%
same,Alkaline Phosphatase Increased,[9]; Grade 3-4 Max Post,0%
same,Calcium Decreased,[9]; Grade 3-4 Max Post,1%
same,Creatinine Increased,[9]; Grade 3-4 Max Post,0%
same,Gamma Glutamyl Transferase Increased,[9]; Grade 3-4 Max Post,11%
same,Hemoglobin Decreased,[9]; Grade 3-4 Max Post,1%
same,Lymphocytes Decreased,[9]; Grade 3-4 Max Post,13%
same,Neutrophil Count Decreased,[9]; Grade 3-4 Max Post,4%
same,Phosphate Decreased,[9]; Grade 3-4 Max Post,7%
same,Platelets Decreased,[9]; Grade 3-4 Max Post,5%
same,Potassium Increased,[9]; Grade 3-4 Max Post,1%
same,"Abdominal pain, All Grades",[9]; N=83,22%
same,"Abdominal pain, Grades 3-4",[9]; N=83,1%
same,"Arthralgia, All Grades",[9]; N=83,15%
same,"Arthralgia, Grades 3-4",[9]; N=83,2%
same,"Asthenia, All Grades",[9]; N=83,46%
same,"Asthenia, Grades 3-4",[9]; N=83,4%
same,"Bacterial infection, All Grades",[9]; N=83,16%
same,"Bacterial infection, Grades 3-4",[9]; N=83,4%
same,"Cough, All Grades",[9]; N=83,30%
same,"Cough, Grades 3-4",[9]; N=83,0%
same,"Decreased appetite, All Grades",[9]; N=83,17%
same,"Decreased appetite, Grades 3-4",[9]; N=83,1%
same,"Diarrhea, All Grades",[9]; N=83,35%
same,"Diarrhea, Grades 3-4",[9]; N=83,5%
same,"Dysphagia, All Grades",[9]; N=83,16%
same,"Dysphagia, Grades 3-4",[9]; N=83,0%
same,"Dyspnea, All Grades",[9]; N=83,33%
same,"Dyspnea, Grades 3-4",[9]; N=83,5%
same,"Edema, All Grades",[9]; N=83,27%
same,"Edema, Grades 3-4",[9]; N=83,1%
same,"Headache, All Grades",[9]; N=83,21%
same,"Headache, Grades 3-4",[9]; N=83,0%
same,"Hemorrhage, All Grades",[9]; N=83,23%
same,"Hemorrhage, Grades 3-4",[9]; N=83,5%
same,"Hypertension, All Grades",[9]; N=83,21%
same,"Hypertension, Grades 3-4",[9]; N=83,7%
same,"Infection (pathogen not specified), All Grades",[9]; N=83,53%
same,"Infection (pathogen not specified), Grades 3-4",[9]; N=83,16%
same,"Muscle spasm, All Grades",[9]; N=83,17%
same,"Muscle spasm, Grades 3-4",[9]; N=83,0%
same,"Musculoskeletal pain, All Grades",[9]; N=83,22%
same,"Musculoskeletal pain, Grades 3-4",[9]; N=83,4%
same,"Nausea (includes vomiting), All Grades",[9]; N=83,42%
same,"Nausea (includes vomiting), Grades 3-4",[9]; N=83,4%
same,"Pruritus, All Grades",[9]; N=83,11%
same,"Pruritus, Grades 3-4",[9]; N=83,0%
same,"Pyrexia, All Grades",[9]; N=83,18%
same,"Pyrexia, Grades 3-4",[9]; N=83,1%
same,"Rash, All Grades",[9]; N=83,12%
same,"Rash, Grades 3-4",[9]; N=83,0%
same,"Viral infection, All Grades",[9]; N=83,19%
same,"Viral infection, Grades 3-4",[9]; N=83,4%
same,adverse reactions leading to dose interruption,[9]; N=83,29%
same,"dose interruption due to asthenia, dyspnea, hemorrhage, hypotension, liver function test abnormal, nausea, pyrexia, edema, renal failure (each)",[9]; N=83,2%
same,dose interruption due to diarrhea,[9]; N=83,4%
same,dose interruption due to infections,[9]; N=83,11%
same,permanent discontinuation due to adverse reactions,[9]; N=83,18%
same,permanent discontinuation due to nausea,[9]; N=83,4%
same,metabolism by CYP3A4,[10],primarily metabolized

# Reference: patent publication US12097202B2 (Kadmon Corporation, LLC, priority 2022, dated 2024)
